system: beta-TC6 cells; test: Insulin HTRF assay (relative activity Ar) in beta-TC6 cells; assay type: cell-based, mouse; conditions: Mus musculus, Beta-TC6, 4 h, insulin HTRF, supernatant of beta-TC6 cells, incubation with test compound at 37°C for 2, 3, 4h; read-out: Ar (relative activity)
Summary of the method: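 beta-TC6 cells (15k/well, seeded 24 or 48 h) washed, then exposed to compound in induction buffer (0.5% DMSO final) for 2, 3 or 4 h at 37°C.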

Question: Which Emax does the source give for `CN(C)C(=O)c1ccc(-c2cc3c(Nc4ccc5c(c4)OCCO5)nccc3n2C)cc1` [Compound 214, 4-[4-(2,3-dihydro-1,4-benzodioxin-6-ylamino)-1-methyl-pyrrolo[3,2-c]pyridin-2-yl]-N,N-dimethyl-benzamide] here?
Answer: 50 to 100%

Question: How did the Emax turn out when `COc1ccc(Nc2nccc3c2cc(-c2ccc(C(=O)N(C)C)cc2)n3C)cc1OC` [Compound 215, 4-[4-(3,4-dimethoxyanilino)-1-methyl-pyrrolo[3,2-c]pyridin-2-yl]-N,N-dimethyl-benzamide] was run?
Answer: 50 to 100%

Question: Which Emax does the source give for `COc1ccc(Nc2nccc3c2cc(-c2ccc(C(=O)N(C)C)cc2)n3C)cn1` [Compound 216, 4-[4-[(6-methoxy-3-pyridyl)amino]-1-methyl-pyrrolo[3,2-c]pyridin-2-yl]-N,N-dimethyl-benzamide] here?
Answer: 50 to 100%

Question: How did the Emax turn out when `CN(C)C(=O)c1ccc(-c2cc3c(Nc4ccc(Oc5ccccc5)cc4)nccc3n2C)cc1` [Compound 217, N,N-dimethyl-4-[1-methyl-4-(4-phenoxyanilino)pyrrolo[3,2-c]pyridin-2-yl]benzamide] was run?
Answer: 0 to 30%

Question: For `CN(C)C(=O)c1ccc(-c2cc3c(Nc4cccc(N(C)C)c4)nccc3n2C)cc1` [Compound 218, 4-[4-[3-(dimethylamino)anilino]-1-methyl-pyrrolo[3,2-c]pyridin-2-yl]-N,N-dimethyl-benzamide], which Emax is on record?
Answer: 50 to 100%

Question: With `CN(C)C(=O)c1ccc(-c2cc3c(Nc4ccccn4)nccc3n2C)cc1` [Compound 219, N,N-di methyl-4-[1-methyl-4-(2-pyridylamino)pyrrolo[3,2-c]pyridin-2-yl]benzamide] as the molecule, how does the Emax read?
Answer: 30 to 50%

Question: With `COc1cc(Nc2nccc3c2cc(-c2ccc(C(=O)N(C)C)cc2)n3C)cc(C(F)(F)F)c1` [Compound 220, N,N-dimethyl-4-[1-methyl-4-(3-methoxy-5-(trifuloromethyl)phenylamino)pyrrolo[3,2-c]pyridin-2-yl]benzamide] as the molecule, how does the Emax read?
Answer: 0 to 30%

Question: For `CN(C)C(=O)c1ccc(-c2cc3c(Nc4cccc(O)c4)nccc3n2C)cc1` [Compound 221, 4-[4-(3-hydroxyanilino)-1-methyl-pyrrolo[3,2-c]pyridin-2-yl]-N,N-dimethyl-benzamide], which Emax is on record?
Answer: 30 to 50%

Question: Which Emax does the source give for `CN(C)C(=O)c1ccc(-c2cc3c(Nc4cccc(OC(F)(F)F)c4)nccc3n2C)cc1` [Compound 222, N,N-dimethyl-4-[1-methyl-4-[3-(trifluoromethoxy)anilino]pyrrolo[3,2-c]pyridin-2-yl]benzamide] here?
Answer: 0 to 30%

Question: Which Emax does the source give for `CN(C)C(=O)c1ccc(-c2cc3c(Nc4cccc(Oc5ccccc5)c4)nccc3n2C)cc1` [Compound 223, N,N-dimethyl-4-[1-methyl-4-(3-phenoxyanilino)pyrrolo[3,2-c]pyridin-2-yl]benzamide] here?
Answer: 0 to 30%

Question: How did the Emax turn out when `CC(C)c1cccc(Nc2nccc3c2cc(-c2ccc(C(=O)N(C)C)cc2)n3C)c1` [Compound 224, 4-[4-(3-isopropylanilino)-1-methyl-pyrrolo[3,2-c]pyridin-2-yl]-N,N-dimethyl-benzamide] was run?
Answer: 0 to 30%

Question: For `CN(C)C(=O)c1ccc(-c2cc3c(Nc4cccc(NS(C)(=O)=O)c4)nccc3n2C)cc1` [Compound 225, 4-[4-[3-(methanesulfonamido)anilino]-1-methyl-pyrrolo[3,2-c]pyridin-2-yl]-N,N-dimethyl-benzamide], which Emax is on record?
Answer: 30 to 50%

Question: How did the Emax turn out when `CN(C)c1ccc(-c2cc3c(Nc4ccc(O)cc4)nccc3n2C)cc1` [Compound 226, 4-[[2-(4-dimethylaminophenyl)-1-methyl-pyrrolo[3,2-c]pyridin-4-yl]amino]phenol] was run?
Answer: 50 to 100%

Question: With `CN(C)c1ccc(-c2cc3c(Nc4ccc(C(N)=O)cc4)nccc3n2C)cc1` [Compound 227, 4-[[2-(4-dimethylaminophenyl)-1-methyl-pyrrolo[3,2-c]pyridin-4-yl]amino]benzamide] as the molecule, how does the Emax read?
Answer: 30 to 50%

Question: `COc1ccc(Nc2nccc3c2cc(-c2ccc(N(C)C)cc2)n3C)cc1O` [Compound 228, 5-[[2-(4-dimethylaminophenyl)-1-methyl-pyrrolo[3,2-c]pyridin-4-yl]amino]-2-methoxy-phenol] was tested. Which Emax did it give?
Answer: 50 to 100%

Question: For `CN(C)c1ccc(-c2cc3c(Nc4ccncn4)nccc3n2C)cc1` [Compound 229, 2-(4-dimethylaminophenyl)-1-methyl-N-pyrimidin-4-yl-pyrrolo[3,2-c]pyridin-4-amine], which Emax is on record?
Answer: > 100%

Question: For `CN(C)c1ccc(-c2cc3c(Nc4ccc(S(C)(=O)=O)cc4)nccc3n2C)cc1` [Compound 230, 2-(4-dimethylaminophenyl)-1-methyl-N-(4-methylsulfonylphenyl)pyrrolo[3,2-c]pyridin-4-amine], which Emax is on record?
Answer: 30 to 50%

Question: With `CC(=O)Nc1ccc(Nc2nccc3[nH]c(-c4cccnc4)cc23)cc1` [Compound 231, N-[4-[[2-(3-pyridyl)-1H-pyrrolo[3,2-c]pyridin-4-yl]amino]phenyl]acetamide] as the molecule, how does the Emax read?
Answer: > 100%

Question: For `c1cncc(-c2cc3c(Nc4ccc5c(c4)OCCO5)nccc3[nH]2)c1` [Compound 232, N-(2,3-dihydro-1,4-benzodioxin-6-yl)-2-(3-pyridyl)-1H-pyrrolo[3,2-c]pyridin-4-amine], which Emax is on record?
Answer: 50 to 100%

Question: For `COc1ccc(Nc2nccc3[nH]c(-c4cccnc4)cc23)cn1` [Compound 233, N-(6-methoxy-3-pyridyl)-2-(3-pyridyl)-1H-pyrrolo[3,2-c]pyridin-4-amine], which Emax is on record?
Answer: 50 to 100%

Question: With `c1cncc(Nc2nccc3[nH]c(-c4cccnc4)cc23)c1` [Compound 234, N,2-bis(3-pyridyl)-1H-pyrrolo[3,2-c]pyridin-4-amine] as the molecule, how does the Emax read?
Answer: 50 to 100%

Question: Which Emax does the source give for `CN1CCN(c2ccc(Nc3nccc4[nH]c(-c5cccnc5)cc34)cc2)CC1` [Compound 235, N-[4-(4-methylpiperazin-1-yl)phenyl]-2-(3-pyridyl)-1H-pyrrolo[3,2-c]pyridin-4-amine] here?
Answer: 50 to 100%

Question: How did the Emax turn out when `COc1ccc(Nc2nccc3[nH]c(-c4cccnc4)cc23)cc1O` [Compound 236, 2-methoxy-5-[[2-(3-pyridyl)-1H-pyrrolo[3,2-c]pyridin-4-yl]amino]phenol] was run?
Answer: 50 to 100%

Question: `COc1cc(Nc2nccc3c2cc(-c2cccnc2)n3C)cc(OC)c1OC` [Compound 237, 1-methyl-2-(3-pyridyl)-N-(3,4,5-trimethoxyphenyl)pyrrolo[3,2-c]pyridin-4-amine] was tested. Which Emax did it give?
Answer: > 100%

Question: Which Emax does the source give for `COc1ccc(Nc2nccc3c2cc(-c2cccnc2)n3C)cc1OC` [Compound 238, N-(3,4-dimethoxyphenyl)-1-methyl-2-(3-pyridyl)pyrrolo[3,2-c]pyridin-4-amine] here?
Answer: 30 to 50%

Question: With `CN(C)c1cccc(Nc2nccc3c2cc(-c2cccnc2)n3C)c1` [Compound 239, N1,N1-dimethyl-N3-[1-methyl-2-(3-pyridyl)pyrrolo[3,2-c]pyridin-4-yl]benzene-1,3-diamine] as the molecule, how does the Emax read?
Answer: 30 to 50%

Question: For `COc1ccc(Nc2nccc3c2cc(-c2cccnc2)n3C)c(C)c1` [Compound 240, N-(4-methoxy-2-methyl-phenyl)-1-methyl-2-(3-pyridyl)pyrrolo[3,2-c]pyridin-4-amine], which Emax is on record?
Answer: 0 to 30%

Question: For `Cc1cccc(Nc2nccc3c2cc(-c2cccnc2)n3C)c1` [Compound 241, 1-methyl-N-(m-tolyl)-2-(3-pyridyl)pyrrolo[3,2-c]pyridin-4-amine], which Emax is on record?
Answer: 0 to 30%

Question: How did the Emax turn out when `Cn1c(-c2cccnc2)cc2c(Nc3ccc(F)cc3)nccc21` [Compound 242, N-(4-fluorophenyl)-1-methyl-2-(3-pyridyl)pyrrolo[3,2-c]pyridin-4-amine] was run?
Answer: 0 to 30%

Question: For `Cn1c(-c2cccnc2)cc2c(Nc3cccc(NS(C)(=O)=O)c3)nccc21` [Compound 244, N-[3-[[1-methyl-2-(3-pyridyl)pyrrolo[3,2-c]pyridin-4-yl]amino]phenyl]methanesulfonamide], which Emax is on record?
Answer: 50 to 100%

Question: Which Emax does the source give for `CC(=O)Nc1cccc(Nc2nccc3c2cc(-c2cccnc2)n3C)c1` [Compound 245, N-[3-[[1-methyl-2-(3-pyridyl)pyrrolo[3,2-c]pyridin-4-yl]amino]phenyl]acetamide] here?
Answer: 50 to 100%

Question: For `Cn1cc(-c2cc3c(Nc4ccc(S(C)(=O)=O)cc4)nccc3[nH]2)cn1` [Compound 246, 2-(1-methylpyrazol-4-yl)-N-(4-methylsulfonylphenyl)-1H-pyrrolo[3,2-c]pyridin-4-amine], which Emax is on record?
Answer: > 100%

Question: For `Cn1cc(-c2cc3c(Nc4cccnc4)nccc3n2C)cn1` [Compound 247, 1-methyl-2-(1-methylpyrazol-4-yl)-N-(3-pyridyl)pyrrolo[3,2-c]pyridin-4-amine], which Emax is on record?
Answer: > 100%

Question: `CC(=O)N(C)c1cccc(-c2cc3c(Nc4ccc(OC(F)(F)F)cc4)nccc3n2C)c1` [Compound 248, N-methyl-N-[3-[1-methyl-4-[4-(trifluoromethoxy)anilino]pyrrolo[3,2-c]pyridin-2-yl]phenyl]acetamide] was tested. Which Emax did it give?
Answer: 0 to 30%

Question: For `CC(=O)Nc1ccc(Nc2nccc3[nH]c(-c4ccsc4)cc23)cc1` [Compound 249, N-[4-[[2-(3-thienyl)-1H-pyrrolo[3,2-c]pyridin-4-yl]amino]phenyl]acetamide], which Emax is on record?
Answer: > 100%

Question: How did the Emax turn out when `NC(=O)c1ccc(Nc2nccc3[nH]c(-c4ccsc4)cc23)cc1` [Compound 250, 4-[[2-(3-thienyl)-1H-pyrrolo[3,2-c]pyridin-4-yl]amino]benzamide] was run?
Answer: 50 to 100%

Question: `COc1ccc(Nc2nccc3[nH]c(-c4ccsc4)cc23)c(OC)c1` [Compound 251, N-(2,4-dimethoxyphenyl)-2-(3-thienyl)-1H-pyrrolo[3,2-c]pyridin-4-amine] was tested. Which Emax did it give?
Answer: 30 to 50%

Question: With `c1cc2[nH]c(-c3ccsc3)cc2c(Nc2ccc3c(c2)OCCO3)n1` [Compound 252, N-(2,3-dihydro-1,4-benzodioxin-6-yl)-2-(3-thienyl)-1H-pyrrolo[3,2-c]pyridin-4-amine] as the molecule, how does the Emax read?
Answer: 50 to 100%

Question: For `COc1ccc(Nc2nccc3[nH]c(-c4ccsc4)cc23)cc1OC` [Compound 253, N-(3,4-dimethoxyphenyl)-2-(3-thienyl)-1H-pyrrolo[3,2-c]pyridin-4-amine], which Emax is on record?
Answer: 50 to 100%

Question: How did the Emax turn out when `COc1ccc(Nc2nccc3[nH]c(-c4ccsc4)cc23)cn1` [Compound 254, N-(6-methoxy-3-pyridyl)-2-(3-thienyl)-1H-pyrrolo[3,2-c]pyridin-4-amine] was run?
Answer: 50 to 100%

Question: With `c1cncc(Nc2nccc3[nH]c(-c4ccsc4)cc23)c1` [Compound 255, N-(3-pyridyl)-2-(3-thienyl)-1H-pyrrolo[3,2-c]pyridin-4-amine] as the molecule, how does the Emax read?
Answer: 50 to 100%
